The source of these data is patent US20210330659A1, “USE OF NICOTINAMIDE COMPOSITION IN PREPARATION OF DRUG FOR TREATING HAND-FOOT SKIN REACTION INDUCED BY SORAFENIB” (ZHEJIANG UNIVERSITY, priority 2018, published 2021).

Each structure is given as a SMILES string.

The test system of data set [1] is HB-EGF protein in HUVEC cells. In words: Western blot of pro-HB-EGF in cell lysate and s-HB-EGF in culture medium of sorafenib-treated HUVEC cells. It is filed as cell-based. Conditions: 15 μM sorafenib, FIG. 1A. The protocol:
(§1) HUVEC cells were administrated with 15 μM sorafenib. After that, the cells and the culture medium were separately collected, and the culture medium is concentrated. […] HUVEC culture medium treated with sorafenib, as a conditioned medium, was applied to HaCaT cells, and the expression of SIRT1 in the cells was detected. […] After HUVEC cells with HB-EGF knocked out were constructed, the culture medium obtained after administrated with sorafenib was administrated to the HaCaT cells, and mRNA levels of the keratinization progress indicators, i.e., keratin 1, keratin 10 and Loricrin, were detected. […] The HUVEC culture medium added with sorafenib, as the conditioned medium, was applied to the HaCaT cells in which SIRT1 was knocked out, and the mRNA levels of the three keratins were detected.
(In general: A western blot detects proteins with antibodies after separation by electrophoresis.)

The subject of data set [2] is SIRT1 in HaCaT cells. As to the kind of experiment: SIRT1 expression in HaCaT cells given sorafenib-treated HUVEC conditioned medium. It is filed as cell-based. The note with it: HaCaT cells given sorafenib-treated HUVEC culture medium as conditioned medium, FIG. 1B. The protocol: as §1
For data set [3], the system named is keratin 1, keratin 10 and Loricrin in HaCaT cells. As to the kind of experiment: mRNA levels of keratinization indicators in HaCaT cells given HUVEC conditioned medium. In kind it is cell-based. The protocol:
as §1
In an in vitro cell experimental model, HUVEC cells were administered with 15 μM sorafenib alone, and 15 μM sorafenib together with 10 μM nicotinamide, respectively. After 24 hours, the culture medium was collected as a conditioned medium for HaCaT cells, and the HaCaT cells were collected 24 hours later for the detection of mRNA levels of three keratins.

The conditions of data set [4]: patients treated with sorafenib; cited from earlier work.

`CNC(=O)c1cc(Oc2ccc(NC(=O)Nc3ccc(Cl)c(C(F)(F)F)c3)cc2)ccn1` [sorafenib]: the “expression level of the HB-EGF protein in the cells (pro-HB-EGF, cell lysate)” value in data set [1] (HUVEC cells) is recorded as “down-regulated”. The “expression of HB-EGF protein in the culture medium (s-HB-EGF)” value in data set [1] (HUVEC culture medium, concentrated) was “increased”. Besides, the “expression of SIRT1 in HaCaT cells” value in data set [2] is recorded as “up-regulated”. Moreover, the “mRNA levels of keratin 1, keratin 10 and Loricrin” value in data set [3] (HaCaT cells given medium of sorafenib-treated HUVEC cells with HB-EGF knocked out, FIG. 1C) was “down-regulated”; in data set [3] (SIRT1-knocked-out HaCaT cells given sorafenib-treated HUVEC conditioned medium, FIG. 1D), “also down-regulated”. Besides, in data set [4], the “prevalence of hand-foot skin reaction (HFSR)” value was “up to 60%”.
For `NC(=O)c1cccnc1` [nicotinamide, 3-pyridinecarboxamide], in data set [3] (HUVEC treated 24 h with 10 μM nicotinamide plus 15 μM sorafenib, medium applied to HaCaT for 24 h, compared with sorafenib alone, FIG. 2), the “mRNA levels of the three keratins (keratin 1, keratin 10, Loricrin)” value is listed as “significantly down-regulated”.
